Laboratory results: patent EP0620231B1, “Human parvovirus B19 epitope-related peptide” (Shin-Etsu Chemical Co., Ltd., priority 1993, dated 1996)

Assays:
[1] = test system: anti-HPV B19 antibodies; experiment: Secondary screening: reactivity of free synthetic peptides with anti-HPV B19 antibodies; format: binding; settings: for Reactivity with Anti-HPV B19 Antibodies: free peptides, symbols ⓞ, X printed without a legend
Excerpt: A secondary screening would be carried out to make clear the reactivity of a free peptide with the anti-HPV B19 antibodies. In this respect, the synthesis of such a free peptide should be performed while taking, into consideration, the degree of difficulty in synthesizing and purifying the corresponding amino acid sequence. Moreover, the number of amino acid residues in the free peptide should be determined after inquiring into possible structures of each amino acid sequence, i.e., the result of the secondary structure-determination using the computer program.
The foregoing primary screening was performed by preparing peptides each equally having 15 amino acid residues therein, but the secondary screening was carried out while preparing various peptides having variously changed amino acid residue numbers due to the reasons discussed above and the inventors have narrowed down to 6 amino acid sequences listed in the following Table 2.
Finally, 6 kinds of free peptides corresponding to the foregoing 6 amino acid sequences were synthesized and were inspected for the reactivity with the anti-HPV B19 antibodies. […]

[2] = test system: anti-HPV B19 antibody (IgG); experiment: Detection Example 1: ELISA detection of immunoglobulin G (IgG) in patient serum on immobilized peptide; format: binding, human; settings: Fig. 4
Method: In this example, the serum obtained from a patient infected with HPV B19 was inspected for the presence of an IgG antibody by the ELISA method. A microtiter plate made of polystyrene was used as a solid support. A peptide solution whose peptide concentration was adjusted to 10µg/mℓ with a phosphate buffer was dispensed to the wells (100µℓ each) of the plate and then the peptide was allowed to be immobilized at room temperature overnight to give an immobilized solid support. The immobilized solid support was then treated with blocking agent for inhibiting any non-specific adsorption reaction of unlinked sites present on the solid support with the IgG antibody. […]
The microtiter plate was washed 6 times with a phosphate buffer, then horseradish peroxidase (HRP)-labeled anti-human IgG antibody which was diluted 1000 times with the same buffer was dispensed to the wells (100µℓ each) and they were reacted at 37°C for one hour. […] The colored product was inspected for the presence of HRP through determination of absorbance at a wavelength of 492 nm using a microtiter plate reader.
The peptide of Formula (1) was used in this determination. […] In Fig. 4, the time after onset of illness is plotted as abscissa and the absorbance as ordinate.

[3] = test system: IgM among the anti-HPV antibodies; experiment: Detection Example 2: ELISA detection of immunoglobulin M (IgM) in patient serum on immobilized peptide; format: binding; settings: ELISA with HRP-labeled human IgM antibody; Fig. 5
Excerpt: In this example, the serum obtained from a patient infected with HPV B19 was inspected for the presence of an IgM antibody by the ELISA method. The same procedures used in Detection Example 1 were repeated to give an immobilized solid support and to carry out the same assay except that HRP-labeled human IgM antibody was substituted for the HRP-labeled human IgG antibody used in Detection Example 1.
The peptide of Formula (1) was used in this determination. In addition, the peptides of Formulae (2) and (3) were also used as comparative peptides. The results thus obtained are plotted on Fig. 5.

[4] = test system: anti-HPV B19 antibodies; experiment: Detection Example 3: determination of IgG with peptide immobilized through biotin-avidin affinity; format: binding, human; settings: biotinylated peptide on avidin plate, Fig. 6
Method: This Example is given for illustrating a method in which the immobilized solid support is prepared by immobilizing peptide onto the solid support through the use of the biotin-avidin affinity to thus determine the IgG antibody. First of all, a 250 µg/mℓ solution of biotin-N-hydroxysuccinimide ester (NHS-Biotin) was dispensed to wells (100µℓ each) of a microtiter plate of polystyrene carrying, on the surface, amino groups and the reaction was continued at 37 °C for 2 hours. Then the microtiter plate was washed 6 times with a phosphate buffer, a 50µg/mℓ solution of avidin was dispensed to the wells (100µℓ each) and they were reacted at 37 °C for one hour.
The biotinylated peptide used herein was obtained by coupling NHS-Biotin to the N-terminal of the protected peptide prepared in the same manner used in the foregoing Peptide Preparation Example followed by removal of the protective groups and purification carried out according to the same manner used in the foregoing Peptide Preparation Example. The resulting biotinylated peptide was washed 6 times with a phosphate buffer and subjected to blocking and assay according to the same method used in Detection Example 2.
The peptide of Formula (1) was used in this determination. In addition, the peptides of Formulae (2) and (3) were also used as comparative peptides. The results thus obtained are plotted on Fig. 6. […]

SMILES | Reactivity with Anti-HPV B19 Antibodies [1] | reactivity with the anti-HPV B19 antibodies compared with the peptide reported by Sato et al. ([1]; comparison with peptide VP2 328-344) | reactivity with the anti-HPV B19 antibody (IgG) ([2]; ELISA, absorbance at 492 nm, serum diluted 200 times, peptide 10 µg/ml) | reactivity at the initial stage of the infection (the acute stage) ([2]; IgG ELISA, time after onset of illness) | reactivity with IgM among the anti-HPV antibodies [3] | reactivity at the initial stage of the infection (the acute stage) [4] | reactivity with the anti-HPV B19 antibodies [4]
CC(C)C[C@H](N)C(=O)N[C@@H](CCCNC(=N)N)C(=O)N1CCC[C@H]1C(=O)NCC(=O)N1CCC[C@H]1C(=O)N[C@H](C(=O)N[C@@H](CO)C(=O)N[C@@H](CCC(N)=O)C(=O)N1CCC[C@H]1C(=O)N[C@@H](Cc1ccc(O)cc1)C(=O)N[C@@H](Cc1c[nH]cn1)C(=O)N[C@@H](Cc1c[nH]cn1)C(=O)N[C@@H](Cc1c[nH]c2ccccc12)C(=O)N[C@@H](CC(=O)O)C(=O)N[C@H](C(=O)N[C@@H](CC(=O)O)C(=O)N[C@@H](CCCCN)C(=O)O)[C@@H](C)O)C(C)C [Formula (3), H-Leu-Arg-Pro-Gly-Pro-Val-Ser-Gln-Pro-Tyr-His-His-Trp-Asp-Thr-Asp-Lys-OH, reference compound] | ○ |  |  |  |  |  | 
CC[C@H](C)[C@H](NC(=O)CNC(=O)[C@@H](NC(=O)[C@@H](NC(=O)[C@H](Cc1ccc(O)cc1)NC(=O)[C@H](CCCCN)NC(=O)[C@H](CC(=O)O)NC(=O)[C@@H](NC(=O)[C@H](CC(=O)O)NC(=O)[C@H](Cc1c[nH]c2ccccc12)NC(=O)[C@H](Cc1c[nH]cn1)NC(=O)[C@H](Cc1c[nH]cn1)NC(=O)[C@H](Cc1ccc(O)cc1)NC(=O)[C@@H]1CCCN1C(=O)[C@@H](N)CCC(N)=O)[C@@H](C)O)C(C)C)[C@@H](C)O)C(=O)N[C@@H](CC(N)=O)C(=O)N[C@@H](C)C(=O)N[C@H](C(=O)N[C@@H](CO)C(=O)N[C@@H](Cc1c[nH]cn1)C(=O)NCC(=O)N[C@@H](CCC(N)=O)C(=O)N[C@H](C(=O)N[C@H](C(=O)N[C@@H](Cc1ccc(O)cc1)C(=O)O)[C@@H](C)O)[C@@H](C)O)[C@@H](C)CC [Formula (1)] | ⓞ | extremely high | high reactivity | strong reactivity | high reactivity | strong reactivity | high reactivity
